According to patent US4831155A (priority 1984, dated 1989):
Read-outs that look alike come from different tables or passages of the source.

Assays:
[1] = target: T1, acetylcholinesterase originating from "Electrophorus electricus" (Electrophorus electricus, UniProt O42275)
[2] = acute toxicity (lethal dose) in mice; assay type: in vivo; settings: mouse, in vivo, injection, determined within two hours, read-out: lethal dose 50 (LD50)
Experimental: (§1) The activity of the this product was evaluated in terms of its toxicity (lethal dose: LD) and its behavioural effects.
(§2) The experiments were conducted using male Swiss mice with a weight of about 30 g.
(§3) The acute toxic effects of the heptyl derivative were also evaluated as a comparison with the effects of physostigmine. […] Compared with physostigmine, the lethal dose 50 of the heptyl derivative is about 60 times greater, the LD50 for physostigmine being 0.6 mg/kg. The LD50 values were determined within two hours from the injection. Beyond this time, no obvious effects were observable. The LD50 values of other derivatives according to the present invention, evaluated with the same method resulted as follows: […]

[3] = target: T1, acetylcholinesterase originating from "Electrophorus electricus"; assay: biochemical
[4] = system: male Swiss mice; assay: spontaneous locomotor activity in mice (two-part cage); assay type: in vivo
Experimental: (§4) In particular, with regard to this latter aspect, an evaluation was made of the effects of the substance on spontaneous locomotor activity, and of the antagonisms of the heptyl derivative towards the central stimulating effects of anticholinergic drugs (scopolamine). An evaluation was also made of the effects of the substance on the electrocorticographic activity and on the inhibition of cerebral acetylcholinesterase (AchE) "in vivo".
as §2
The test used for measuring the spontaneous locomotor activity was that employing a cage divided into two parts.

[5] = system: acetylcholinesterase (AchE); assay: acetylcholinesterase (AChE) inhibition in the brain and serum after i.p. administration; assay type: in vivo, rats; settings: n=4; for AChE inhibition, brain (M ± SE) / AChE inhibition, serum (M ± SE): Table I, 10 min, salicylate
Experimental: The acetylcholinesterase (AchE) inhibition in the brain and serum was tested for the heptyl derivative in comparison with physostigmine. Both physostigmine and heptyl derivative were used in form of salycilate and dissolved in distilled water with carbossimethyl cellulose sodium salt at 2%.

[6] = system: cerebral acetylcholinesterase (AchE); assay type: in vivo, mice
[7] = system: male Swiss mice; assay: antagonism towards the central stimulating effects of scopolamine; assay type: in vivo
Experimental: as §4, §2
At the central cholinergic antagonists exert a stimulating action on spontaneous activity, a study was carried out of the antagonism towards the stimulating effects of scopolamine (a typical anticholinergic drug which acts at the central level) by the heptyl derivative. […] These activities show the existence of antagonism towards the central effects of scopolamine, indicative of a central effect of the heptyl derivative.

[8] = system: mice implanted with parietal electrodes; assay: electrocorticographic activity; assay type: in vivo; settings: 10 mg/kg, 15 minutes after administration
Experimental: as §4, §2
The […] was recorded by a Beckmann polygraph.

[9] = system: male Swiss mice; assay: acute toxicity (lethal dose) in mice; assay type: in vivo
Experimental: as §1, §2, §3

[10] = bimolecular rate constant, value = ki × 10^-5
[11] = first order carbamylation rate constant
[12] = first order reactivation rate constant, value = k3 × 10^2
[13] = Table II, i.p. equiactive doses: Phys. 0.2, Hept. 1.0 mg/Kg

T1 sequence (O42275 24-633): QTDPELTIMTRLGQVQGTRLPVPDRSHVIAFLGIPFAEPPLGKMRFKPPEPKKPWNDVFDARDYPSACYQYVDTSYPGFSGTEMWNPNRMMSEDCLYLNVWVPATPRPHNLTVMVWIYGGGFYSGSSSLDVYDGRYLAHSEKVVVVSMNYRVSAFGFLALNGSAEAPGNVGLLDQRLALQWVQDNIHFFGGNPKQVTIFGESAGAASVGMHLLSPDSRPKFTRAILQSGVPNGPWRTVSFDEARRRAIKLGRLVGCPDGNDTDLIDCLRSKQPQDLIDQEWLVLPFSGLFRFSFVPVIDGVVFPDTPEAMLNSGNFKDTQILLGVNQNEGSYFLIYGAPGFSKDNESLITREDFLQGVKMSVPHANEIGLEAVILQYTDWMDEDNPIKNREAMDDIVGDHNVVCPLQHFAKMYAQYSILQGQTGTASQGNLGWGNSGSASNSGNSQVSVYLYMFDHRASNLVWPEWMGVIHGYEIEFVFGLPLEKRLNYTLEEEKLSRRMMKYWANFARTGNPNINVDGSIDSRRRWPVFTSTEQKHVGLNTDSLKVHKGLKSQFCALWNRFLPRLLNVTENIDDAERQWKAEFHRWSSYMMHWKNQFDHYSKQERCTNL

CCCCCCCCCNC(=O)Oc1ccc2c(c1)[C@]1(C)CCN(C)[C@@H]1N2C [n.nonyl derivative]
ki × 10^-5 (± S.E.) [1, 10]: 1.5 ± 0.1
LD50 at 2 h [2]: 50 mg/kg
IC50 [3]: 1500 nM

CCNC(=O)Oc1ccc2c(c1)[C@]1(C)CCN(C)[C@@H]1N2C [Ethyl-]
ki × 10^-5 (± S.E.) [1, 10]: 2.3 ± 0.1
k2 (± S.E.) [1, 11]: 3.5 ± 1.1
k3 × 10^2 (± S.E.) [1, 12]: 2.5 ± 0.3
IC50 [3]: 1000 nM
Ki [3]: 130 nM

CNC(=O)Oc1ccc2c(c1)[C@]1(C)CCN(C)[C@@H]1N2C [Eserine, reference compound]
k2 (± S.E.) [1]: 8.8 ± 1.0
k3 × 10^2 (± S.E.) [1]: 5.4 ± 0.2
ki × 10^-5 (± S.E.) [1]: 26.6 ± 0.8
effect on spontaneous locomotor activity (analogous to depressing effect of heptyl derivative) ([4]; doses between 0.1 and 0.3 mg/kg): An analogous effect
LD50 at 2 h [2]: 0.6 mg/kg
AChE inhibition, brain (M ± SE) ([5]; 0.15 mg/kg i.p.): 39.18 ± 4.32%
% AChE Inhibition, brain, 60 minutes (M ± SE) [5, 13]: 12.47 ± 2.83%
% AChE Inhibition, brain, 120 minutes (M ± SE) [5, 13]: 3.28 ± 1.99%
effect on coloration of cerebral tissues (AchE inhibition) ([6]; 0.4 and 0.5 mg/kg): no evident effect

CN(C)C(=O)Oc1ccc2c(c1)[C@]1(C)CCN(C)[C@@H]1N2C [dimethyl derivative, Pyrrolo [2,3-b]indol-5-ol,3,3a,8,8a-hexahydro-1,3a,8-trimethyl-dimethylcarbamate (ester),(3aS-cis)]
ki × 10^-5 (± S.E.) [1, 10]: 0.2 ± 0.05
k2 (± S.E.) [1, 11]: 8.8 ± 3.3
k3 × 10^2 (± S.E.) [1, 12]: 8.5 ± 1.2
LD50 at 2 h [2]: 9 mg/kg
IC50 [3]: 3100 nM
Ki [3]: 348 nM

CN1[C@@H]2C[C@@H](OC(=O)[C@H](CO)c3ccccc3)C[C@H]1[C@@H]1O[C@@H]12 [scopolamine, reference compound]
increase in basic locomotor activity ([7]; scopolamine 1 mg/kg): 100%

CCCCCCCNC(=O)Oc1ccc2c(c1)[C@]1(C)CCN(C)[C@@H]1N2C [heptyl derivative, trimethyl-1,3a,8-hexahydro-1,2,3,3a,8,8a-pyrrol[2,3-b]indole-5(3aS, 8aR) heptylcarbamate]
electrocorticographic amplitude [8]: an increase in its amplitude
electrocorticographic rate [8]: a slowing down of the electrocorticographic rate
ki × 10^-5 (± S.E.) [1, 10]: 2.8 ± 0.1
k2 (± S.E.) [1, 11]: 7.2 ± 3.6
k3 × 10^2 (± S.E.) [1, 12]: 0.71 ± 0.08
reduction in locomotor activity compared with the controls ([4]; 5 mg/kg): 25%
influence on spontaneous locomotor activity ([4]; between 0.1 mg/kg and 3 mg/kg): does not influence spontaneous activity
effect on spontaneous locomotor activity ([4]; doses higher than 3 mg/kg): a depressing effect is observed
LD50 at 2 h [2]: 35 mg/kg
lethal dose 100 (LD100) ([9]; injection): 45 mg/kg
lethal dose 50 compared with physostigmine ([9]; ratio to LD50 of physostigmine): about 60 times greater
AChE inhibition, brain (M ± SE) ([5]; 0.50 mg/kg i.p.): 25.55 ± 11.64%
AChE inhibition, serum (M ± SE) ([5]; 0.50 mg/kg i.p.): 20.85 ± 5.64%
AChE inhibition, brain (M ± SE) ([5]; 1.00 mg/kg i.p.): 50.00 ± 1.32%
AChE inhibition, serum (M ± SE) ([5]; 1.00 mg/kg i.p.): 59.40 ± 1.99%
AChE inhibition, brain (M ± SE) ([5]; 2.00 mg/kg i.p.): 53.62 ± 10.51%
AChE inhibition, serum (M ± SE) ([5]; 2.00 mg/kg i.p.): 67.42 ± 4.29%
AChE inhibition, brain (M ± SE) ([5]; 4.00 mg/kg i.p.): 72.35 ± 5.92%
AChE inhibition, serum (M ± SE) ([5]; 4.00 mg/kg i.p.): 79.42 ± 2.89%
% AChE Inhibition, brain, 10 minutes (M ± SE) [5, 13]: 50.00 ± 1.32%
% AChE Inhibition, brain, 60 minutes (M ± SE) [5, 13]: 28.46 ± 9.56%
% AChE Inhibition, brain, 120 minutes (M ± SE) [5, 13]: 22.45± 2.54%
% AChE Inhibition, serum, 10 minutes (M ± SE) [5, 13]: 59.40 ± 1.99%
% AChE Inhibition, serum, 60 minutes (M ± SE) [5, 13]: 41.15 ± 4.29%
% AChE Inhibition, serum, 120 minutes (M ± SE) [5, 13]: 21.53 ± 2.31%
effect on coloration of cerebral tissues (AchE inhibition) ([6]; 20 mg/kg, injected 15 minutes before sacrifice): evident diminution in the coloration of the cerebral tissues
duration of effect on coloration of cerebral tissues ([6]; 30 mg/kg): remained for more than one hour
effect on coloration of cerebral tissues (AchE inhibition) ([6]; 30 mg/kg, compared with 20 mg/kg): even more marked
IC50 [3]: 1000 nM
Ki [3]: 53 nM
antagonism of scopolamine-induced stimulation ([7]; 3 mg/kg against scopolamine 1 mg/kg): restored the activity to the control values
effect of the dose per se ([7]; 3 mg/kg alone): ineffective

CCCNC(=O)Oc1ccc2c(c1)[C@]1(C)CCN(C)[C@@H]1N2C [n.Propyl-, trimethyl-1,3a,8-hexahydro-1,2,3a,8,8a-pyrrol[2,3-b]indole-5(3aS, 8aR) propylcarbamate]
ki × 10^-5 (± S.E.) [1, 10]: 0.9 ± 0.1
IC50 [3]: 2500 nM

CCCCNC(=O)Oc1ccc2c(c1)[C@]1(C)CCN(C)[C@@H]1N2C [n.butyl derivative]
ki × 10^-5 (± S.E.) [1, 10]: 2.0 ± 0.1
k2 (± S.E.) [1, 11]: 6.7 ± 3.5
k3 × 10^2 (± S.E.) [1, 12]: 0.45 ± 0.14
LD50 at 2 h [2]: 6 mg/kg
IC50 [3]: 3500 nM
Ki [3]: 26 nM

CCCCCCCCCCCNC(=O)Oc1ccc2c(c1)[C@]1(C)CCN(C)[C@@H]1N2C [Undecyl-, trimethyl-1,3a,8-hexahydro-1,2,3,3a,8,8a-pyrrol[2,3-b]indole-5(3aS, 8aR) undecylcarbamate]
ki × 10^-5 (± S.E.) [1, 10]: 0.8 ± 0.1
IC50 [3]: 2900 nM

CCN(CC)C(=O)Oc1ccc2c(c1)[C@]1(C)CCN(C)[C@@H]1N2C [diethyl derivative, Pyrrolo [2,3-b]indol-5-ol,3,3a,8,8a-hexahydrol,3a,8-trimethyl-diethylcarbamate (ester), (3aS-cis)]
ki × 10^-5 (± S.E.) [1, 10]: 0.004
LD50 at 2 h [2]: 38 mg/kg
IC50 [3]: 680000 nM
